This note sets out measurements from ChEMBL document CHEMBL5058564, “EUbOPEN Chemogenomics Library 2 (Incucyte)” (2022).

Common to all, as to format: toxicity, cell-based
In data set [1] the test system is Fibroblast. In words: Incucyte cell viability with human fibroblast. Conditions: 10 µM, compound concentration 10 uM.
The subject of data set [2] is U2OS. In words: Incucyte cell viability with U2OS. Conditions: human, 10 µM, compound concentration 10 uM.
The test system of data set [3] is HEK-293T. The data set can be described thus: Incucyte cell viability with HEK293T. Conditions: human, 10 µM, compound concentration 10 uM.
The mark [4] stands for this setting: 0 h, replicate number 2, timepoint 0 hours.
[5] abbreviates: 6 h, replicate number 1, timepoint 6 hours.
Setting [6] is: 12 h, replicate number 1, timepoint 12 hours.
Setting [7] is: 0 h, replicate number 1, timepoint 0 hours.
The mark [8] stands for this setting: 24 h, replicate number 2, timepoint 24 hours.
The mark [9] stands for this setting: 6 h, replicate number 2, timepoint 6 hours.
Setting [10] is: 12 h, replicate number 2, timepoint 12 hours.
Where [11] appears, read: 18 h, replicate number 1, timepoint 18 hours.
Setting [12] is: 18 h, replicate number 2, timepoint 18 hours.
The mark [13] stands for this setting: 24 h, replicate number 1, timepoint 24 hours.

Each structure is given as a SMILES string.
Further: unitless GR value; below 1 slowed growth and below 0 cell loss.

For `Cc1ccc(O)c([C@H](CCN(C(C)C)C(C)C)c2ccccc2)c1.O=C(O)C(O)C(O)C(=O)O` [TOLTERODINE TARTRATE], the “Growth Rate” value in data set [1] (setting [4]) was 0.83; in data set [1] (setting [5]), 0.59; in data set [1] (setting [6]), 0.92; in data set [2] (setting [7]), -0.73; in data set [2] (setting [4]), 0.94; in data set [2] (setting [5]), 0.98. The “Growth Rate” value in data set [3] (setting [4]) was 0.52; in data set [3] (setting [5]), 0.89; in data set [3] (setting [6]), 0.79.
In the case of `CCOC(=O)Nc1cc(-c2ccc(C)c(NS(C)(=O)=O)c2)nn2c(C)nnc12`, the “Growth Rate” value is 0.22 in data set [1] (setting [4]); -0.16 in data set [1] (setting [5]); 0.95 in data set [1] (setting [8]); 0.25 in data set [2] (setting [7]); 0.15 in data set [2] (setting [5]); 0.59 in data set [2] (setting [9]). The “Growth Rate” value was 0.56 in data set [2] (setting [6]); 0.95 in data set [2] (setting [10]); 0.82 in data set [2] (setting [11]); 0.95 in data set [2] (setting [12]); 0.83 in data set [2] (setting [13]); 0.84 in data set [2] (setting [8]). The “Growth Rate” value in data set [3] (setting [7]) is on record as 0.65; in data set [3] (setting [4]), 0.66; in data set [3] (setting [6]), 0.95; in data set [3] (setting [11]) it was 0.79; in data set [3] (setting [12]) it was 0.98; in data set [3] (setting [13]), 0.46. The “Growth Rate” value in data set [3] (setting [8]) stood at 0.76.
Turning to `CN(C)C(=O)N1CC[C@H](NC2=Nc3cc(F)ccc3N(CC(F)F)c3ccc(Cl)cc32)C1`, the “Growth Rate” value is reported as -0.03 in data set [1] (setting [4]); -0.43 in data set [1] (setting [5]); 0.6 in data set [1] (setting [6]); 0.62 in data set [1] (setting [11]); 0.82 in data set [1] (setting [12]); 0.32 in data set [1] (setting [13]). The “Growth Rate” value is 0.81 in data set [1] (setting [8]); 0.92 in data set [2] (setting [10]); 0.92 in data set [2] (setting [12]); 0.7 in data set [3] (setting [4]); 0.94 in data set [3] (setting [5]); 0.35 in data set [3] (setting [9]). Besides, the “Growth Rate” value in data set [3] (setting [6]) stood at 0.82; in data set [3] (setting [10]), 0.77; in data set [3] (setting [11]), 0.89; in data set [3] (setting [12]), 0.79; in data set [3] (setting [13]) it was 0.83; in data set [3] (setting [8]) it was 0.88.
On to `COCCCN1CCC(NC(=O)c2cc(Cl)c(N)c3c2OCC3)CC1` [PRUCALOPRIDE], for which the “Growth Rate” value in data set [1] (setting [7]) stood at 0.48; in data set [1] (setting [4]), 0.89; in data set [1] (setting [5]), 0.71; in data set [1] (setting [9]) it was 0.75; in data set [1] (setting [6]), 0.6; in data set [1] (setting [11]) it was 0.86. The “Growth Rate” value is 0.24 in data set [2] (setting [7]); 0.76 in data set [2] (setting [9]); 0.99 in data set [2] (setting [10]); 0 in data set [2] (setting [11]); 0.98 in data set [2] (setting [12]); 0.1 in data set [2] (setting [13]). In addition, in data set [3] (setting [10]), the “Growth Rate” value turned out to be 0.99.
As to `CCCN(CCc1cccs1)[C@H]1CCc2c(O)cccc2C1` [ROTIGOTINE], the “Growth Rate” value is reported as -0.39 in data set [1] (setting [4]); 0.1 in data set [1] (setting [5]); 0.84 in data set [1] (setting [6]); 0.77 in data set [2] (setting [7]); 0.95 in data set [2] (setting [5]); 0.96 in data set [2] (setting [6]). The “Growth Rate” value in data set [3] (setting [7]) was 0.77; in data set [3] (setting [4]) it was -1; in data set [3] (setting [13]), 0.99.
For `CN(C)C/C=C/C(=O)Nc1ccc(C(=O)N2CCCC(Nc3ncc(Cl)c(-c4c[nH]c5ccccc45)n3)C2)cc1` (stereo not given), the “Growth Rate” value in data set [1] (setting [5]) was -0.96; in data set [1] (setting [9]), -0.55; in data set [1] (setting [6]) it was -0.75; in data set [1] (setting [10]) it was -0.33; in data set [1] (setting [11]) it was -0.7; in data set [1] (setting [12]), -0.1. In addition, the “Growth Rate” value is reported as -0.55 in data set [1] (setting [13]); -0.06 in data set [1] (setting [8]); -0.56 in data set [2] (setting [7]); 0.12 in data set [2] (setting [4]); 0.53 in data set [2] (setting [5]); 0.51 in data set [2] (setting [6]). For the same compound, the “Growth Rate” value is given as 0.63 in data set [2] (setting [10]); 0.27 in data set [2] (setting [11]); 0.26 in data set [2] (setting [12]); 0.09 in data set [2] (setting [13]); 0.13 in data set [2] (setting [8]); -0.75 in data set [3] (setting [5]). The “Growth Rate” value is recorded as -0.93 in data set [3] (setting [9]); -0.58 in data set [3] (setting [6]); -0.66 in data set [3] (setting [10]); -0.42 in data set [3] (setting [11]); -0.43 in data set [3] (setting [12]); -0.27 in data set [3] (setting [13]). For the same compound, the “Growth Rate” value in data set [3] (setting [8]) is on record as -0.31.
Consider `CC(C)COc1ccc(CNC(=O)N(Cc2ccc(F)cc2)C2CCN(C)CC2)cc1` [PIMAVANSERIN], for which the “Growth Rate” value in data set [1] (setting [5]) is given as 0.97; in data set [1] (setting [9]), -0.26; in data set [1] (setting [6]) it was 0.37; in data set [1] (setting [10]) it was -0.05; in data set [1] (setting [11]) it was 0.14; in data set [1] (setting [13]) it was 0.27. Further, the “Growth Rate” value amounted to 0.26 in data set [1] (setting [8]); 0.56 in data set [2] (setting [5]); 0.04 in data set [2] (setting [9]); 0.62 in data set [2] (setting [6]); 0.31 in data set [2] (setting [10]); 0.57 in data set [2] (setting [11]). In addition, the “Growth Rate” value in data set [2] (setting [12]) was 0.26; in data set [2] (setting [13]) it was 0.5; in data set [2] (setting [8]), 0.24; in data set [3] (setting [5]) it was -0.67; in data set [3] (setting [9]), 0.4; in data set [3] (setting [6]), -0.29. Also, the “Growth Rate” value in data set [3] (setting [10]) is reported as 0.31; in data set [3] (setting [11]), -0.21; in data set [3] (setting [12]) it was 0.1; in data set [3] (setting [13]), -0.29; in data set [3] (setting [8]), -0.01.
For `CCCCCCNC(=O)Nc1ccc(S(=O)(=O)Nc2ccc(CCNC[C@H](O)COc3ccc(O)cc3)cc2)cc1` [L-755507], the “Growth Rate” value is 0.5 in data set [1] (setting [7]); 0.79 in data set [1] (setting [4]); 0.91 in data set [1] (setting [5]); -0.46 in data set [1] (setting [9]); 0.47 in data set [1] (setting [10]); 0.25 in data set [2] (setting [5]). The “Growth Rate” value in data set [2] (setting [9]) turned out to be 0.75; in data set [2] (setting [6]), 0.32; in data set [2] (setting [10]), 0.7; in data set [2] (setting [11]), 0.87; in data set [2] (setting [12]), 0.79; in data set [2] (setting [13]), 0.87. For the same compound, the “Growth Rate” value amounted to 0.89 in data set [2] (setting [8]), 0.4 in data set [3] (setting [7]), 0.53 in data set [3] (setting [9]) and 0.94 in data set [3] (setting [10]).
On to `Cc1c(Cc2ccc3ccccc3n2)c2cc(F)ccc2n1CC(=O)O` [TIMAPIPRANT], for which the “Growth Rate” value in data set [1] (setting [7]) turned out to be 0.53; in data set [1] (setting [4]) it was 0.31; in data set [1] (setting [5]), 0.6; in data set [1] (setting [6]), 0.51; in data set [1] (setting [11]) it was 0.8; in data set [1] (setting [13]) it was 0.87. The “Growth Rate” value is listed as -1 in data set [2] (setting [4]); 0.37 in data set [2] (setting [5]); 0.81 in data set [2] (setting [6]); 0.63 in data set [2] (setting [11]); 0.96 in data set [2] (setting [12]); 0.4 in data set [3] (setting [4]). Further, the “Growth Rate” value in data set [3] (setting [11]) is recorded as 0.82.
